Eight molecules from PubChem BioAssay AID1259407 (Chemical Carcinogenesis Research Information System (CCRIS), 2018) can be followed below.

Active and inactive are the calls of the source. No rule for the calls is given here.

This data set relates to CCRIS mutagenicity, Ames/micronucleus/aberration tests. The experiment in a line: CCRIS mutagenicity studies.
The mark [1] stands for this setting: Test System: AMES SALMONELLA TYPHIMURIUM, Strain/Indicator: TA100, Metabolic Activation: NONE, Method: PREINCUBATION
Setting [2] is: Test System: AMES SALMONELLA TYPHIMURIUM, Strain/Indicator: TA1535, Metabolic Activation: NONE, Method: PREINCUBATION

Take `Cc1cccc(Nc2cc(Cl)nc(SCC(=O)NCCO)n2)c1C`: the mutagenic call is, setting by setting: (Test System: AMES SALMONELLA TYPHIMURIUM, Strain/Indicator: TA98, Metabolic Activation: NONE) “inactive; negative”; (Test System: AMES SALMONELLA TYPHIMURIUM, Strain/Indicator: TA98, Metabolic Activation: RAT, LIVER, S-9, AROCLOR 1254) “inactive; negative”; (Test System: AMES SALMONELLA TYPHIMURIUM, Strain/Indicator: TA102, Metabolic Activation: NONE) “inactive; negative”; (Test System: AMES SALMONELLA TYPHIMURIUM, Strain/Indicator: TA102, Metabolic Activation: RAT, LIVER, S-9, AROCLOR 1254) “inactive; negative”; (Test System: AMES SALMONELLA TYPHIMURIUM, Strain/Indicator: TA104, Metabolic Activation: NONE) “inactive; negative”; (Test System: AMES SALMONELLA TYPHIMURIUM, Strain/Indicator: TA104, Metabolic Activation: RAT, LIVER, S-9, AROCLOR 1254) “inactive; negative”. In addition, the mutagenic call (Test System: UDS RAT HEPATOCYTES, Strain/Indicator: THY INCORP, Metabolic Activation: NONE, Method: LIQUID SCINTILLATION COUNTING) was “active; positive”.
As to `CC1CO1` (configuration not stated), the mutagenic call runs as follows: (End Point: IN VITRO CHROMOSOMAL ABERRATIONS, Test System: CHL CELLS, Metabolic Activation: NONE) “active; positive (structural changes)”; (End Point: IN VITRO CHROMOSOMAL ABERRATIONS, Test System: CHL CELLS, Metabolic Activation: RAT, LIVER, S-9, SODIUM PHENOBARBITAL AND 5,6-BENZOFLAVONE) “active; positive (structural changes)”; (End Point: IN VITRO CHROMOSOMAL ABERRATIONS, Test System: CHO CELLS, Metabolic Activation: NONE) “active; positive; weak response”; (Test System: AMES SALMONELLA TYPHIMURIUM, Strain/Indicator: TA100, Metabolic Activation: HAMSTER, LIVER, S-9, AROCLOR 1254 (10%), Method: PREINCUBATION) “active; positive”; (Test System: AMES SALMONELLA TYPHIMURIUM, Strain/Indicator: TA100, Metabolic Activation: NONE, Method: FLASK VAPORIZATION) “active; positive”; under setting [1], “active; positive”. Further, the mutagenic call reads like this: (Test System: AMES SALMONELLA TYPHIMURIUM, Strain/Indicator: TA100, Metabolic Activation: NONE, Method: STANDARD PLATE) “active; positive”; (Test System: AMES SALMONELLA TYPHIMURIUM, Strain/Indicator: TA100, Metabolic Activation: NONE, Method: SUSPENSION/PLATE) “active; positive”; (Test System: AMES SALMONELLA TYPHIMURIUM, Strain/Indicator: TA100, Metabolic Activation: RAT, LIVER, S-9, AROCLOR 1254 (10%), Method: PREINCUBATION) “active; positive”; (Test System: AMES SALMONELLA TYPHIMURIUM, Strain/Indicator: TA100, Metabolic Activation: RAT, LIVER, S-9, AROCLOR 1254, Method: FLASK VAPORIZATION) “active; positive”; (Test System: AMES SALMONELLA TYPHIMURIUM, Strain/Indicator: TA100, Metabolic Activation: RAT, LIVER, S-9, AROCLOR 1254, Method: STANDARD PLATE) “active; positive”; (Test System: AMES SALMONELLA TYPHIMURIUM, Strain/Indicator: TA1535, Metabolic Activation: HAMSTER, LIVER, S-9, AROCLOR 1254 (10%), Method: PREINCUBATION) “active; positive”. Also, the mutagenic call runs as follows: (Test System: AMES SALMONELLA TYPHIMURIUM, Strain/Indicator: TA1535, Metabolic Activation: NONE, Method: FLASK VAPORIZATION) “active; positive”; under setting [2], “active; positive”; (Test System: AMES SALMONELLA TYPHIMURIUM, Strain/Indicator: TA1535, Metabolic Activation: NONE, Method: STANDARD PLATE) “active; positive”; (Test System: AMES SALMONELLA TYPHIMURIUM, Strain/Indicator: TA1535, Metabolic Activation: NONE, Method: SUSPENSION/PLATE) “active; positive”; (Test System: AMES SALMONELLA TYPHIMURIUM, Strain/Indicator: TA1535, Metabolic Activation: RAT, LIVER, S-9, AROCLOR 1254 (10%), Method: PREINCUBATION) “active; positive”; (Test System: AMES SALMONELLA TYPHIMURIUM, Strain/Indicator: TA1535, Metabolic Activation: RAT, LIVER, S-9, AROCLOR 1254, Method: FLASK VAPORIZATION) “active; positive”. In addition, the mutagenic call was “active; positive” (Test System: AMES SALMONELLA TYPHIMURIUM, Strain/Indicator: TA1535, Metabolic Activation: RAT, LIVER, S-9, AROCLOR 1254, Method: STANDARD PLATE); “active; positive” (Test System: Ames Salmonella typhimurium, Strain/Indicator: YG7108, Metabolic Activation: None, Method: Standard plate); “active; positive” (Test System: MOUSE LYMPHOMA, Strain/Indicator: L5178Y (TK+/TK-), Metabolic Activation: NONE, Method: SUSPENSION/PLATE).
Regarding `CC(O)/C(=C(\c1ccccc1)c1ccc(OCCN(C)C)cc1)c1ccccc1` (configuration not stated), the mutagenic call (Test System: CHINESE HAMSTER V-79, Strain/Indicator: V79HHST (HPRT)/6-THIOGUANINE, Metabolic Activation: NONE) is “inactive; negative” and the mutagenic call (Test System: CHINESE HAMSTER V-79, Strain/Indicator: V79RHST (HPRT)/6-THIOGUANINE, Metabolic Activation: NONE) is “active; positive”.
Regarding `Cc1ccc2ccc3cc4ccccc4c4ccc1c2c34`, the mutagenic call runs as follows: (Test System: AMES SALMONELLA TYPHIMURIUM, Strain/Indicator: TA100, Metabolic Activation: RAT, INTACT HEPATOCYTES, AROCLOR 1254, Method: PREINCUBATION) “active; positive”; (Test System: AMES SALMONELLA TYPHIMURIUM, Strain/Indicator: TA100, Metabolic Activation: RAT, NADPH-FORTIFIED HOMOGENIZED HEPATOCYTES, AROCLOR 1254, Method: PREINCUBATION) “active; positive”.
Take `CC(=O)N(O[C@@H]1O[C@H](CO)[C@@H](O)[C@H](O)[C@H]1O)c1ccc(Oc2ccc(Cl)cc2)cc1`: the mutagenic call is, setting by setting: (Test System: AMES SALMONELLA TYPHIMURIUM, Strain/Indicator: TA100, Metabolic Activation: GUINEA PIG, LIVER, MICROSOMAL FRACTION, PCB) “active; positive”; (Test System: AMES SALMONELLA TYPHIMURIUM, Strain/Indicator: TA100, Metabolic Activation: GUINEA PIG, LIVER, S-9, PCB) “active; positive”; (Test System: AMES SALMONELLA TYPHIMURIUM, Strain/Indicator: TA100, Metabolic Activation: GUINEA PIG, LIVER, S-105, PCB) “inactive; negative”.
Turning to `C1=COc2c(c3cc4ccccc4cc3c3ccccc23)C=C1`, the mutagenic call (Test System: AMES SALMONELLA TYPHIMURIUM, Strain/Indicator: TA100, Metabolic Activation: RAT, LIVER, S-9, AROCLOR 1254, Method: PREINCUBATION) is “active; positive”.
Regarding `Nc1nc(=O)n([C@@H]2O[C@H](CO)[C@@H](O)[C@H]2O)cc1O`, the mutagenic call under setting [1] is “inactive; negative”.
As for `C1CCCNCC1`, the mutagenic call reads like this: (Test System: AMES SALMONELLA TYPHIMURIUM, Strain/Indicator: TA98, Metabolic Activation: NONE, Method: PREINCUBATION) “inactive; negative”; (Test System: AMES SALMONELLA TYPHIMURIUM, Strain/Indicator: TA98, Metabolic Activation: RAT LIVER S-9, PHENOBARBITAL AND BETA-NAPHTHOFLAVONE, Method: PREINCUBATION) “inactive; negative”; under setting [1], “inactive; negative”; (Test System: AMES SALMONELLA TYPHIMURIUM, Strain/Indicator: TA100, Metabolic Activation: RAT LIVER S-9, PHENOBARBITAL AND BETA-NAPHTHOFLAVONE, Method: PREINCUBATION) “inactive; negative”; under setting [2], “inactive; negative”; (Test System: AMES SALMONELLA TYPHIMURIUM, Strain/Indicator: TA1535, Metabolic Activation: RAT LIVER S-9, PHENOBARBITAL AND BETA-NAPHTHOFLAVONE, Method: PREINCUBATION) “inactive; negative”. Moreover, the mutagenic call is “inactive; negative” (Test System: AMES SALMONELLA TYPHIMURIUM, Strain/Indicator: TA1537, Metabolic Activation: NONE, Method: PREINCUBATION); “inactive; negative” (Test System: AMES SALMONELLA TYPHIMURIUM, Strain/Indicator: TA1537, Metabolic Activation: RAT LIVER S-9, PHENOBARBITAL AND BETA-NAPHTHOFLAVONE, Method: PREINCUBATION); “inactive; negative” (Test System: E.COLI, Strain/Indicator: WP2UVRA, Metabolic Activation: NONE, Method: PREINCUBATION); “inactive; negative” (Test System: E.COLI, Strain/Indicator: WP2UVRA, Metabolic Activation: RAT LIVER S-9, PHENOBARBITAL AND BETA-NAPHTHOFLAVONE, Method: PREINCUBATION).
